Assay results reported in PMC9007462 (Journal of Medicinal Chemistry, 2022).

Columns and labels:
[1] = biological target: T1, Human ALDH3A1 (Homo sapiens, UniProt P30838); assay: ALDH3A1 inhibition, IC50, Ki and type of inhibition; assay type: biochemical; conditions: 31 μM 4-NBA as substrate; mean ± SE
T1 construct: made in house
T1 sequence (P30838 1-453): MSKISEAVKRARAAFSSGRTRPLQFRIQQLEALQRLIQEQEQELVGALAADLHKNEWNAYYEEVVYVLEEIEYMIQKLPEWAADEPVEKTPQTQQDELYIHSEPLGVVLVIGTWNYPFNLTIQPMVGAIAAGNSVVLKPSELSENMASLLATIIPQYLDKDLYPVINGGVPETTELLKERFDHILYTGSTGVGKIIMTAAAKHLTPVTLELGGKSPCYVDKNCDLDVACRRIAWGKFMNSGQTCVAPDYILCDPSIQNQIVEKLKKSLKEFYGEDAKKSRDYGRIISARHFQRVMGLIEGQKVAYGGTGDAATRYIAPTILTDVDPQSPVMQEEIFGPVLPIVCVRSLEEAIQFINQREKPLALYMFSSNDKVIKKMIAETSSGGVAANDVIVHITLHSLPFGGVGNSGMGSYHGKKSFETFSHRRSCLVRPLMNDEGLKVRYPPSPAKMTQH
Protocol: (§1) Human ALDH1A1, ALDH1A3, and ALDH3A1 were cloned and recombinantly expressed from the pET-30 Xa/LIC vector. Protein purification was achieved by affinity chromatography on a nickel-charged chelating Sepharose Fast Flow 5-mL column (His Trap column, Cytiva), which specifically binds the protein due to its N-terminal (His)6 tag, using an ÄKTA FPLC system (Cytiva), as previously described.[55] Enzymes including the His tag were stored at −80 °C in 20 mM Tris/HCl and 0.5 M NaCl, pH 8.0, until use. Reaction buffers were as follows: ALDH1A1 was assayed in 50 mM HEPES, 0.5 mM EDTA, and 0.5 mM DTT, pH 8.0; ALDH1A3 was assayed in 50 mM HEPES, 30 mM MgCl2, and 5 mM DTT, pH 8.0; and ALDH3A1 was assayed in 50 mM Tris–HCl and 5 mM DTT, pH 8.0. Activity under standard conditions was measured fluorimetrically at 25 °C using a Cary Eclipse (Varian) fluorimeter to follow the purification procedure and to check the enzyme concentration before each kinetic experiment. The fluorescence of NADH was characterized at 460 nm with excitation at 340 nm, and 5 μM NAD(P)H was added as an internal standard to obtain the absolute reaction rates.[55] Standard activity was measured at saturating concentrations of substrate using 30 μM hexanal (ALDH1A1), 250 μM hexanal (ALDH1A3), or 250 μM 4-NBA (ALDH3A1). NAD^+ was 500 μM for ALDH1A1 and ALDH1A3, and NADP^+ was 1 mM for ALDH3A1.
In order to determine the IC50 values, reaction rates were determined at various concentrations of inhibitor at a fixed concentration of substrate. As substrates for ALDH1A1, ALDH1A3, and ALDH3A1, 5 μM hexanal, 6 μM hexanal, and 31 μM 4-NBA, respectively, were used. The IC50 values were calculated by nonlinear fitting of the obtained data to a sigmoidal plot using GraFit 5.0 (Erithacus software), with the following 4-parameter equation [drawing 2] , where y is the specific activity, x is the inhibitor concentration, background is the minimum y value, range is the fitted uninhibited value minus the background, and s is the slope factor. Values are expressed as the mean ± SE.
Activity assays to determine the type of inhibition and Ki value were performed using various substrate and inhibitor concentrations maintaining the same conditions as for the IC50 experiments and using GraFit 5.0 for data processing. The data of enzymatic activities at different inhibitor concentrations were fitted to the Michaelis–Menten equation to determine the values of Km and Vmax. Next, results were fitted to the equations for competitive, given by [drawing 3]; noncompetitive, given by [drawing 4]; uncompetitive, given by [drawing 5]; and mixed, given by [drawing 6] .[56] The type of inhibition was selected based on the lowest error value. Parameters were expressed as the mean ± SE.

[2] = biological target: T2, Human ALDH1A3 (Homo sapiens, UniProt P47895); assay: ALDH1A3 inhibition, IC50, Ki and type of inhibition; assay type: biochemical; conditions: for IC50: 6 μM hexanal as substrate; for IC50 / Ki: mean ± SE; for type of inhibition ALDH1A3 / Ki: hexanal as substrate; for Ki: fit to competitive inhibition equation
T2 construct: made in house
T2 sequence (P47895 1-512): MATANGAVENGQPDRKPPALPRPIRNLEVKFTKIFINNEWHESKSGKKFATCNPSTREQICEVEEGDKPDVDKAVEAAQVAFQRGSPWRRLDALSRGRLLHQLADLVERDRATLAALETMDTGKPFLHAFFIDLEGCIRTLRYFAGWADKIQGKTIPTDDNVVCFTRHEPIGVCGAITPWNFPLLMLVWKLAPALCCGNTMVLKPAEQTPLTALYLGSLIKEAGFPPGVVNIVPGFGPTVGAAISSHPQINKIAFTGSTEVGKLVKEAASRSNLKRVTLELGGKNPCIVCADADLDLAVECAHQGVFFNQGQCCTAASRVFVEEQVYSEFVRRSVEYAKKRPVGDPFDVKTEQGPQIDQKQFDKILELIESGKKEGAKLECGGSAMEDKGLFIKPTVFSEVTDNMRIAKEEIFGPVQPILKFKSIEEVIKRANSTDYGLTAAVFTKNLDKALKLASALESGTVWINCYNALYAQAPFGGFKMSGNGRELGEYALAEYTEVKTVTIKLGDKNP
Protocol: Human ALDH1A1, ALDH1A3, and ALDH3A1 were cloned and recombinantly expressed from the pET-30 Xa/LIC vector. Protein purification was achieved by affinity chromatography on a nickel-charged chelating Sepharose Fast Flow 5-mL column (His Trap column, Cytiva), which specifically binds the protein due to its N-terminal (His)6 tag, using an ÄKTA FPLC system (Cytiva), as previously described.[55] Enzymes including the His tag were stored at −80 °C in 20 mM Tris/HCl and 0.5 M NaCl, pH 8.0, until use. Reaction buffers were as follows: ALDH1A1 was assayed in 50 mM HEPES, 0.5 mM EDTA, and 0.5 mM DTT, pH 8.0; […] Activity under standard conditions was measured fluorimetrically at 25 °C using a Cary Eclipse (Varian) fluorimeter to follow the purification procedure and to check the enzyme concentration before each kinetic experiment. […] In order to determine the IC50 values, reaction rates were determined at various concentrations of inhibitor at a fixed concentration of substrate. […] Values are expressed as the mean ± SE. […] The data of enzymatic activities at different inhibitor concentrations were fitted to the Michaelis–Menten equation to determine the values of Km and Vmax. Next, results were fitted to the equations for competitive, given by [drawing 3]; noncompetitive, given by [drawing 4]; uncompetitive, given by [drawing 5]; and mixed, given by [drawing 6] .[56] The type of inhibition was selected based on the lowest error value. Parameters were expressed as the mean ± SE.

[3] = biological target: T1, Human ALDH3A1; assay: DEAB analogues as substrates of ALDH3A1 (substrate activity and kinetics); assay type: biochemical
Protocol: as §1
According to their structure with a carbonyl group, compounds were tested for their substrate properties against ALDH1A1, ALDH1A3, and ALDH3A1. […] Results are expressed as the percentage of activity at 10 μM versus the activity at 10 μM of their standard substrate (hexanal or 4-NBA). Values are expressed as the mean ± SE.
To calculate the Km value of compound 18 as a substrate for ALDH3A1, several concentrations of compound 18 were used. Experimental values were fitted to the adaptation of the Michaelis–Menten equation for substrate inhibition [drawing 1] and shown as the mean ± SE.

[4] = tested on: LNCaP; assay: MTT chemosensitivity assay, LNCaP; assay type: cell-based, human; conditions: 96 h exposure, ± SD, at least three independent experiments
Protocol: (§2) MTT (3-(4, 5-dimethyl-2-thiazolyl)-2, 5-diphenyl-2H-tetrazolium bromide) assay was used to determine cell viability.[64] Immortalized PCa cells (PC-3, Du-145, and LNCaP) were seeded in 96-well plates and allowed to adhere overnight at 37 °C, 5% CO2, and 100% humidity. […] After 96 h of exposure, 200 μL of MTT (Sigma) solution (0.5 mg/mL) was added to each well and incubated at 37 °C for 4 h. The formazan crystals were dissolved in DMSO (Sigma), and the absorbance was read using a microplate reader (Multiskan EX; Thermo Fisher Scientific) at 540 nm. Data analysis was performed using Microsoft Excel 2013 and GraphPad Prism software.

[5] = tested on: PC3; assay: MTT chemosensitivity assay, PC3; assay type: cell-based, human; conditions: ± SD, at least three independent experiments
Protocol: as §2

[6] = tested on: DU145; assay: MTT chemosensitivity assay, DU145; assay type: cell-based, human; conditions: ± SD, at least three independent experiments
Protocol: as §2

[7] = biological target: T3, Human ALDH1A1 (Homo sapiens, UniProt P00352); assay: Inhibition screening, single point at 10 μM, ALDH1A1; assay type: biochemical; conditions: 10 μM compound; 5 μM hexanal (Figure S1)
T3 construct: made in house
T3 sequence (P00352 1-501): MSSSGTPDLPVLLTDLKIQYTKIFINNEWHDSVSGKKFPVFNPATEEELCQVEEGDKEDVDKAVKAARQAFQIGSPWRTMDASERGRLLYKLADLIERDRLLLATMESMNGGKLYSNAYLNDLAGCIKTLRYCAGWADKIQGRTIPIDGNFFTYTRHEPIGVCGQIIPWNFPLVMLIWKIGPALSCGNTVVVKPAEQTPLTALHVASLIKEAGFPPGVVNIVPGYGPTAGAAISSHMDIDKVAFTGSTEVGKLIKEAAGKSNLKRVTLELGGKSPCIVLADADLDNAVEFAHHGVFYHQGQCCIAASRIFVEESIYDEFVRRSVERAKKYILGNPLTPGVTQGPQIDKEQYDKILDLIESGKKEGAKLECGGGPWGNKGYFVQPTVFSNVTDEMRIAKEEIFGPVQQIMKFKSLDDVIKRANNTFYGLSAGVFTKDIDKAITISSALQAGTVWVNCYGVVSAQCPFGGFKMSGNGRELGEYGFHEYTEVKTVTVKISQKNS
Protocol: as §1
All compounds tested were dissolved in DMSO and assayed at a final concentration of 1% (v/v) DMSO. […] For the initial screening, the enzymatic activity was measured in 96-well plates (final volume of 200 μL) in a Victor 3 Multilabel Plate Reader (Perkin Elmer), by monitoring the fluorescence of the NAD(P)H produced during the reaction (excitation at 340 nm and emission at 460 nm). Alternatively, the enzymatic activity was measured in a Varian Cary 400 UV–vis spectrophotometer, by monitoring the increase in the absorbance of NAD(P)H at 340 nm (ε = 6.22 mM^–1·cm^–1) or in a Cary Eclipse Varian fluorimeter, as described above. […] For ALDH1A1, 5 μM hexanal (Sigma) was used. For ALDH1A3, 10 and 250 μM hexanal (Sigma) were used. For ALDH3A1, 4-NBA (Sigma) was used at 31 and 250 μM. All substrates were prepared in the corresponding assay buffer at a concentration of 2 mM and further diluted to reach the final concentrations required per experiment. The concentration of the enzyme was kept from 50- to 100-fold lower than that of the substrate for all enzymatic assays.

[8] = Homo sapiens, PC-3, 96 h exposure
[9] = Homo sapiens, DU-145, 96 h exposure

Molecule	IC50 [2]	IC50 ([4]; Homo sapiens, LNCaP)	IC50 [5, 8]	IC50 [6, 9]	also measured
O=Cc1ccc(N2CCOCC2)c(Cl)c1 [Compound 9, 3-Chloro-4-morpholinobenzaldehyde]	2.37 ± 0.19 µM				IC50 [1]: 64.1 ± 6.7 µM
CC(C)Oc1ccc(C=O)cc1 [Compound 16, 4-Isopropoxybenzaldehyde]	0.26 ± 0.01 µM	> 200 µM	> 200 µM	> 200 µM	ALDH3A1 substrate activity ([3]; 10 μM compound as substrate, relative to activity with 10 μM 4-NBA (Figure S2)): good ALDH3A1 substrate; type of inhibition ALDH1A3 [2]: competitive; Ki [2]: < 1 µM
O=Cc1ccc(N2CCCC2)c([N+](=O)[O-])c1 [Compound 34, 3-Nitro-4-(pyrrolidin-1-yl)benzaldehyde]	0.27 ± 0.03 µM				
O=Cc1ccc(N2CCCCC2)c(Br)c1 [Compound 23, 3-Bromo-4-(piperidin-1-yl)benzaldehyde]		46 ± 10 µM	84 ± 6 µM	84 ± 12 µM	
4-(Dipropylamino)-2-methoxybenzaldehyde [Compound 38]					IC50 [4]: 50 ± 3 µM; IC50 ([5]; 96 h exposure): 75 ± 10 µM; IC50 ([6]; 96 h exposure): 71 ± 11 µM
CN1CCN(c2ccc(C=O)cc2Br)CC1 [Compound 21, 3-Bromo-4-(4-methylpiperazin-1-yl)benzaldehyde]		179 ± 14 µM	> 200 µM	187 ± 14 µM	
O=Cc1ccc(N2CCCCC2)c(Cl)c1 [Compound 8, 3-Chloro-4-(piperidin-1-yl)benzaldehyde]		37 ± 1.4 µM	130 ± 9 µM	110 ± 3 µM	
4-(Dipropylamino)-3-methoxybenzaldehyde [Compound 17]					IC50 [4]: 61 ± 18 µM; IC50 ([5]; 96 h exposure): 106 ± 25 µM; IC50 ([6]; 96 h exposure): 103 ± 4 µM
O=Cc1ccc(N2CCOCC2)c(Br)c1 [Compound 22, 3-Bromo-4-morpholinobenzaldehyde]		82 ± 10 µM	196 ± 4 µM	155 ± 32 µM	
O=Cc1ccc(-n2ccnc2)cc1 [Compound 6, 4-(1H-Imidazole-1-yl)benzaldehyde]		137 ± 14 µM	172 ± 30 µM	133 ± 11 µM	
O=Cc1ccc([N+](=O)[O-])cc1 [Compound 4-NBA, 4-Nitrobenzaldehyde, reference compound]					Km ([3]; mean ± SE): 31 ± 4.9 µM; kcat as ALDH3A1 substrate ([3]; mean ± SE): 359 ± 14 min^–1; Km fold higher than compound 18 (ALDH3A1 substrate) ([3]; ratio of Km values): 10 fold; turnover number (kcat) fold higher than compound 18 (ALDH3A1) ([3]; ratio of kcat values): 26 fold
O=Cc1ccc(N2CCCC2)cc1 [Compound 4, 4-(Pyrrolidin-1-yl)benzaldehyde]					remaining ALDH1A1 activity [7]: 10%
Cc1cc(C=O)ccc1N1CCCCC1 [Compound 15, 3-Methyl-4-(piperidin-1-yl)benzaldehyde]	0.3 ± 0.07 µM	61 ± 14 µM	123 ± 29 µM	106 ± 13 µM	type of inhibition ALDH1A3 [2]: competitive; Ki [2]: < 1 µM
